pKd: −log10 of the molar value.
Tests used:
[1] = target: fetal rat brain cytosol binding sites of pregnenolone (Rattus norvegicus, UniProt P15146); experiment: Equilibrium binding of PREG [3H] to fetal brain cytosol; details: mean±standard error, n=3
Protocol: Fetal brains are collected, and are rinsed, after the meninges have been removed, with a homogenization buffer at 4° C. [10 mM of Tris-HCl, at pH 8.5, containing 1.5 mM of EDTA, 1 mM of dithiothreitol, 10% of glycerol, Complete®, (a mixture of protease inhibitors, Roche Molecular Biochemical); termed TEDG buffer].
(§1) The supernatant is then centrifuged at 100,000 g for 1 h at 4° C. The samples are used immediately for the trials, or are stored in liquid nitrogen until the moment of their use.
(§2) Just before the binding trial, each sample is purified with a dextran-carbon suspension, and 2 ml samples of supernatant (purified cytosol) are added to a series of tubes containing 1 to 500 nM PREG [^3H], with or without unlabeled steroid in 1,000-fold excess.
(§3) The tubes are incubated at 45° C. for 30 min. The separation of bound and free steroid was carried out on a Sephadex LH-20® (Amersham Pharmacia Biotech) mini-column.
(§4) The counting of the radioactivity in the flasks was performed in a liquid scintillation spectrometer with attenuation correction (Tri-Carb 2100 TR®, Packard).
The equilibrium binding data are analyzed with the Mac Ligand program, adapted from Munson and Rodbard (17). […]
The bound steroid is separated by gel filtration on Sephadex LH20® at 0-4° C. The binding constants are determined with the Mac Ligand program.

purified calf MAP2 = target: T1, purified calf MAP2 (Bos taurus, UniProt A0A3Q1NAK9); experiment: Equilibrium binding of PREG [3H] to purified calf MAP2
T1 construct: from tissue; host or cells: calf brain microtubules, heat denaturation and Sephacryl 300 gel filtration
T1 sequence (A0A3Q1NAK9 1-1867): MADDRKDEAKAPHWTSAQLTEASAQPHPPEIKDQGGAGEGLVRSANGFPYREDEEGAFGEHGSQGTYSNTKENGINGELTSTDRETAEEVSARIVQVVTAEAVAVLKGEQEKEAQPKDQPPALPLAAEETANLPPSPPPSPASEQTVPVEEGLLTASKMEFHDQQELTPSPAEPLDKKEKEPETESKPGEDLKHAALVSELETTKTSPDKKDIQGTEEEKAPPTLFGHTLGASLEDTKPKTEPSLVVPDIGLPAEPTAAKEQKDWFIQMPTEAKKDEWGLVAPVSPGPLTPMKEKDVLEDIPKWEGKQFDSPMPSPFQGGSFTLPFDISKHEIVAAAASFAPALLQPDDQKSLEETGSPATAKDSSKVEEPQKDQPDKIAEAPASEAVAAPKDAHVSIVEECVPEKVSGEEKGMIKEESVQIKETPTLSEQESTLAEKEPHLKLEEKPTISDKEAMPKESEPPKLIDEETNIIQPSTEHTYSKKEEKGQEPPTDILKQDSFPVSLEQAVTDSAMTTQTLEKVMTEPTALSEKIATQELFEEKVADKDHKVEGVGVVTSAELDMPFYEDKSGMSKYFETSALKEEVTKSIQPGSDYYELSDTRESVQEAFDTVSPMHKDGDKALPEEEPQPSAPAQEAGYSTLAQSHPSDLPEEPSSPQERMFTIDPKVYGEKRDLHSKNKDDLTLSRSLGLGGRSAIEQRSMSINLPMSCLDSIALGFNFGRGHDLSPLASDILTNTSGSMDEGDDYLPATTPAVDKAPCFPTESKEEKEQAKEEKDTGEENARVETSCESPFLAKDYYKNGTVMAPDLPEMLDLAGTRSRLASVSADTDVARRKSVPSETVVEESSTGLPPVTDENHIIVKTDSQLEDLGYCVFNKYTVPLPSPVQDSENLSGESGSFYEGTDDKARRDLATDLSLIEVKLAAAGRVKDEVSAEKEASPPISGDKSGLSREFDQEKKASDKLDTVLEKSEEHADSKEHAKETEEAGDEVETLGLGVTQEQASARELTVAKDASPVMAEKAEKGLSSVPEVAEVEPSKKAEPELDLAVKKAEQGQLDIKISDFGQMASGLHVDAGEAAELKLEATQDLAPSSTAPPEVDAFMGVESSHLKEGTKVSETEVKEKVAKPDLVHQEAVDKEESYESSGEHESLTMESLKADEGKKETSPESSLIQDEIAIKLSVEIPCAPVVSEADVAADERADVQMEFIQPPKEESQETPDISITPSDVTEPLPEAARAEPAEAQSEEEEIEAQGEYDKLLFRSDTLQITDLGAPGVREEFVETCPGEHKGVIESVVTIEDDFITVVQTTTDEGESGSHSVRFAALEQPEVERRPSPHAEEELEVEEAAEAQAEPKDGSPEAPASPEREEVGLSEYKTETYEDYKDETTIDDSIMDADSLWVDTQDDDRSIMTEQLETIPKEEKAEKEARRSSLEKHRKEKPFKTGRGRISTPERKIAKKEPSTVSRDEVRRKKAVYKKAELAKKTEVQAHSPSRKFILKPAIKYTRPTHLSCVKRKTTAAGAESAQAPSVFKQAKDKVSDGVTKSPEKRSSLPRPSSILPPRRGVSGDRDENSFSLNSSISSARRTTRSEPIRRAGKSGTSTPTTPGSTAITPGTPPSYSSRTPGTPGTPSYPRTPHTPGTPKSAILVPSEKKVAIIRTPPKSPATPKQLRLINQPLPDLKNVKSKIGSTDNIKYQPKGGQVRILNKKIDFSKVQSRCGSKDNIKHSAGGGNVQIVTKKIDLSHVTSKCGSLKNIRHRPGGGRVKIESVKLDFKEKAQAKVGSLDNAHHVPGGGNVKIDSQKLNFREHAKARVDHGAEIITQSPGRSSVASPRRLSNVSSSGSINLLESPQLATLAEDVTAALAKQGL
Protocol: (§5) The tau and MAP2 proteins are purified according to the protocol of Fellous et al. (12) by heat denaturation of the microtubules and gel filtration on a column, Sephacryl 300® being used instead of the Ultrogel ACA 34. The tau proteins are then Further purified according to the method of Lindwall and Cole (15).
(§6) Purified calf brain tubulin (90 μg/ml), MAP2 (45 μg/ml) or tau protein (25 μg/ml) is incubated with 100 nM of PREG [^3H], with or without a 1,000-fold excess of non-radioactive PREG.
The B/U values are reported in FIG. 5 as a function of B in nM, (-∘-) representing equilibrium binding of purified calf brain MAP2, and (-∘-) the equilibrium binding of purified calf brain MAP2 associated with purified calf brain tubulin (for the experimental details, see FIG. 1).

tau protein = experiment: Saturable binding of PREG [3H] to purified tau protein; set-up: species or system calf; details: tau protein 25 μg/ml, 100 nM PREG [3H] ± 1,000-fold excess PREG
Protocol: as §5, §6

[2] = tested on: purified calf brain tubulin; experiment: Saturable binding of PREG [3H] to purified tubulin; details: tubulin 90 μg/ml, 100 nM PREG [3H] ± 1,000-fold excess PREG
Protocol: The calf tubulin is purified according to the protocol of Weingarten et al. (13), but the step using phosphocellulose is replaced by a cation exchange column chromatography (Fractogel, Merck) (14). The microtubules and the tubulin are prepared in L buffer, supplemented with 1 mM of GTP (buffer A).
as §6

[3] = tested on: calf brain tubulin assembled with calf brain MAP2; experiment: Electron microscopy of microtubules polymerized in the presence of PREG; type: biochemical; details: 500 nM of PREG
Protocol: After the polymerization of the microtubules induced by MAP2 in the absence or presence of the substance to be tested, an aliquot portion of the experimental sample is deposited on a hydrophilic grid (300 mesh) covered with carbon. The grids are treated with an aqueous solution of 1% uranyl acetate. Observations are performed with a Phllips CM12 electron microscope.
Analysis was performed of microtubules polymerized in the presence of PREG to verify their appearance.

[4] = tested on: rat brain cytosol binding sites of pregnenolone; experiment: Competition trials for PREG [3H] binding in brain cytosol; set-up: key to R.C.R. 50 (relative competition index): IC50(PREG)/IC50(competitor) ×100; PREG = 100; details: PREG = 100, 50% reduction of specific binding of 100 nM PREG [3H], mean±standard error, n=3
Protocol: (§7) In trials of competition between pregnenolone and different steroids for the binding studied, 0.2 ml of cytosol is incubated with 100 nM of PREG [^3H] and a 1-, 10-, 100-, and 1,000-fold excess of non-radioactive steroid.
To study the specificity of the binding of PREG [^3H], different steroids were used.
(§8) The relative competition index was determined as ratios of the concentrations of the competitor (in the […]) versus PREG causing a reduction of 50% of the specific binding of PREG [^3H]×100 (mean±standard error, n=3).

[5] = target: adult rat brain cytosol compound which binds PREG (Rattus norvegicus, UniProt P15146); experiment: Equilibrium binding of PREG to adult rat brain cytosol
adult rat brain cytosol compound which binds PREG, sequence (P15146 whole entry, the tested form may be a part): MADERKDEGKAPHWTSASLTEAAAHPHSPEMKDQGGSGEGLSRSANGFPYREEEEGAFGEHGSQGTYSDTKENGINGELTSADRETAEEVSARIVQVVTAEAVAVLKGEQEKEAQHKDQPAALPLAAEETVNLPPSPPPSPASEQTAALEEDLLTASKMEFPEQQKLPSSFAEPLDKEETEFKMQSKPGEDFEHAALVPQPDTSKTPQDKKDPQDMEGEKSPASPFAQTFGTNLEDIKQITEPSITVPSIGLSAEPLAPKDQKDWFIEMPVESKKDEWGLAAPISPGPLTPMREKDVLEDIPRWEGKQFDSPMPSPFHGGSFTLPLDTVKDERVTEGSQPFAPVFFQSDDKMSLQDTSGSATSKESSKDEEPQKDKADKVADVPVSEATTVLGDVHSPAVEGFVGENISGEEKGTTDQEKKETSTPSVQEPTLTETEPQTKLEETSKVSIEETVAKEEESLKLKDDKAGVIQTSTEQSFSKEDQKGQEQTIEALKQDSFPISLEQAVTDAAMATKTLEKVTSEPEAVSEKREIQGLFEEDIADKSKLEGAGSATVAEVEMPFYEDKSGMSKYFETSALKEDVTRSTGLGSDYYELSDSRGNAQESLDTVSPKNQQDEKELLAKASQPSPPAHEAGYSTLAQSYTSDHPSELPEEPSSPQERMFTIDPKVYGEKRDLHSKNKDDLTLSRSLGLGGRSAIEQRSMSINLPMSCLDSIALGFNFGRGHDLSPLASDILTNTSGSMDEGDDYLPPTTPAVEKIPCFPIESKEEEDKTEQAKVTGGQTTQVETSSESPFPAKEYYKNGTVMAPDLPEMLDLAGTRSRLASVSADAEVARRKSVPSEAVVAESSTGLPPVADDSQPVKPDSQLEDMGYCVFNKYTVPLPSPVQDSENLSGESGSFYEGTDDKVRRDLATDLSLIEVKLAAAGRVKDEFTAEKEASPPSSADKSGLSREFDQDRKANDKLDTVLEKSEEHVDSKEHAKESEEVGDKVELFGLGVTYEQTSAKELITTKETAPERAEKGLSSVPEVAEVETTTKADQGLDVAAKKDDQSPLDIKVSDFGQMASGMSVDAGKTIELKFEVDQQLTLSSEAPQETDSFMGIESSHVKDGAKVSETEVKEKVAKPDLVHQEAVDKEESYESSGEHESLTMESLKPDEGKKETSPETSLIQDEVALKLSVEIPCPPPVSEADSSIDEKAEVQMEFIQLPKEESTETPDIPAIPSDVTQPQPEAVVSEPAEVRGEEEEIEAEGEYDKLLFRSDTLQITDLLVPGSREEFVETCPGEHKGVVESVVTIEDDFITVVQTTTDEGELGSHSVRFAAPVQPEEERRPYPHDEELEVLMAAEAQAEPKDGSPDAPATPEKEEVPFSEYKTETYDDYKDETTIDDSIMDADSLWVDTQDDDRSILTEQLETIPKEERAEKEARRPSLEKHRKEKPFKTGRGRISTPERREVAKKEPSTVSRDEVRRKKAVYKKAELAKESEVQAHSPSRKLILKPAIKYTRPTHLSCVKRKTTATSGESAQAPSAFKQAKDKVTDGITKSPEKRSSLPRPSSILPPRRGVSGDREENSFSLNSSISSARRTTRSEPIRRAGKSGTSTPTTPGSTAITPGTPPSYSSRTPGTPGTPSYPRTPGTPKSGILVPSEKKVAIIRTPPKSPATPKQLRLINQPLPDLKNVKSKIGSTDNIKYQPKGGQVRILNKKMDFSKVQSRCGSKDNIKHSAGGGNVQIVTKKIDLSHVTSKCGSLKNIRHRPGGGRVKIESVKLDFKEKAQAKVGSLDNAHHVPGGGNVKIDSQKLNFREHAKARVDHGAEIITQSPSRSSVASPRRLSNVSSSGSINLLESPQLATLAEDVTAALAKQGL
Protocol: Adult male rat brains are collected after perfusion with PBS containing 2 IU/ml of heparin. The brains are weighed and homogenized with 4 vol. of homogenization buffer in Potter glass/Teflon® homogenizers, and centrifuged at 800 g for 10 min.
as §1, §2, §3, §4

MAP2-tubulin copolymers = MAP2-tubulin copolymers (Bos taurus, UniProt A0A3Q1NAK9); experiment: Competition for PREG [3H] binding to MAP2-tubulin copolymers (RCR); set-up: species or system calf; details: MAP2-tubulin copolymers; PREG = 100
MAP2-tubulin copolymers, sequence (A0A3Q1NAK9 1-1867): as the sequence (A0A3Q1NAK9 1-1867) above
Protocol: as §7, §8, §6

adult microtubules = adult microtubules (Rattus norvegicus, UniProt P15146); experiment: Binding of PREG [3H] to purified adult rat brain microtubules
adult microtubules, sequence (Q3KRE8 whole entry): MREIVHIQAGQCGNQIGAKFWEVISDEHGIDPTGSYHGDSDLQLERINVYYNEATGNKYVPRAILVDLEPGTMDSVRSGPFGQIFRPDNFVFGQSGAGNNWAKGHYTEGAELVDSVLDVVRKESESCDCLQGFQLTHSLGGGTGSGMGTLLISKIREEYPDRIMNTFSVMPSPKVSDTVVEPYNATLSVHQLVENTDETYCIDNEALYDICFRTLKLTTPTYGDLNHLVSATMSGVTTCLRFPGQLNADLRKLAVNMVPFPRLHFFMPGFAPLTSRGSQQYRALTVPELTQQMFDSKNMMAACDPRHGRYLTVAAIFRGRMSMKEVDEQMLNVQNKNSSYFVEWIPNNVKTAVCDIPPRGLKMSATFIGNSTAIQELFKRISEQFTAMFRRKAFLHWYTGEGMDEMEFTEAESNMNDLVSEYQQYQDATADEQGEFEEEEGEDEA
adult microtubules, sequence (P68370 whole entry, further chain): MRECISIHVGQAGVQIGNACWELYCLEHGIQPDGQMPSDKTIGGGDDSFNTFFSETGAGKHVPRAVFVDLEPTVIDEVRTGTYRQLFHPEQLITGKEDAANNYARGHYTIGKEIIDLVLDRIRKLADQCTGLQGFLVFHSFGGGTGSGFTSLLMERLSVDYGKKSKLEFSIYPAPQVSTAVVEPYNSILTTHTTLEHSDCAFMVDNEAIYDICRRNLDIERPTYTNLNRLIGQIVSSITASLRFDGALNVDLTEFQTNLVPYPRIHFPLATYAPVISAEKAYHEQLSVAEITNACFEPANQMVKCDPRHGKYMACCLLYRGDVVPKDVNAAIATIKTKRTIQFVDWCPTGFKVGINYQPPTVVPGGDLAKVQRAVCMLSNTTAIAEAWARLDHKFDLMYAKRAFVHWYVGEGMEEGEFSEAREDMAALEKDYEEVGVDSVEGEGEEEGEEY
adult microtubules, sequence (P15146 whole entry): as the sequence (P15146 whole entry, the tested form may be a part) above
Protocol: The microtubules are prepared starting from calf brain or adult or fetal rat brain according to an assembly/disassembly method, as a function of the temperature, in vitro (12).
The binding of PREG [^3H] to microtubules prepared by polymerization/depolymerization cycles was determined.

fetal rat brain cytosol binding sites of pregnenolone, sequence (P15146 whole entry): as the sequence (P15146 whole entry, the tested form may be a part) above

CC(=O)C1CCC2C3CC=C4CC(O)CCC4(C)C3CCC12C (stereo not shown) [Pregnenolone]
maximum concentration of binding sites [1]: 1.2±0.1 pmol/mg of protein
Bmax (purified calf MAP2): 16 pmol/mg of MAP2
pKd (purified calf MAP2): 7.41
saturable binding to tau protein (tau protein): neither tubulin, nor tau protein, nor rabbit IgG binds PREG [^3H] in a saturable manner
saturable binding to tubulin [2]: neither tubulin, nor tau protein, nor rabbit IgG binds PREG [^3H] in a saturable manner
structure of the microtubules [3]: remains completely normal
R.C.R. 50 (relative competition index) [4]: 100
Bmax [5]: 0.75 pmol/mg of protein
RCR (MAP2-tubulin copolymers): 100
Bmax (adult microtubules): 3.4 pmol/mg of protein

Source: patent US20030125311A1, “Compounds capable of binding with the cytoskeleton” (priority 2002, published 2003)
